Patent publication US4317881A (priority 1979, dated 1982)

Tested on: not listed separately
Experiment: Inactivation of the enzyme by pH and temperature, with and without calcium
Details: 10^-2 M calcium chloride, 15 min treatment (FIG. 6)

Question: Which “Rise of the temperature at which the enzyme is still stable, versus absence of the metal ion” value does the source give for `[Ca+2].[Cl-].[Cl-]` [CaCl2, calcium chloride] here?
Answer: Its value is roughly 5 °C.

Same assay, conditions: 10^-2 M-10^-3 M calcium chloride

Question: With `[Ca+2].[Cl-].[Cl-]` [CaCl2, calcium chloride] as the compound, how does the “Thermostability of the enzyme on addition of the salt” value read?
Answer: Its value is “enhanced”.

Tested on: cyclodextrin glycosyltransferase (E.C. 2.4.1.19)
Experiment: not given
Assay type: biochemical, Micrococcus varians M 849
Details: pH 7

Question: For `[Ca+2].[Cl-].[Cl-]` [CaCl2, calcium chloride], which Residual activity is on record?
Answer: Its Residual activity is 100%.

Question: Which Residual activity does the source give for `[Cl-].[Cl-].[Co+2]` [CoCl2] here?
Answer: Its Residual activity is 88%.

Question: Which “Inhibition of the enzyme (in words)” value does the source give for `O=S(=O)([O-])[O-].[Cu+2]` [CuSO4] here?
Answer: The value was “inhibited”.

Question: And the Residual activity?
Answer: Its Residual activity is 6%.

Question: Which “Inhibition of the enzyme (in words)” value does the source give for `O=C(O)CN(CCN(CC(=O)O)CC(=O)O)CC(=O)O` [Ethylenediaminetetraacetic acid] here?
Answer: The value was “inhibited”.

Question: And the Residual activity?
Answer: The Residual activity was 2%.

Question: What does the source list for `O=S(=O)([O-])[O-].[Fe+2]` [FeSO4]?
Answer: Inhibition of the enzyme (in words): inhibited; Residual activity: 10%

Question: For `[Cl-].[Cl-].[Mg+2]` [MgCl2], which Residual activity is on record?
Answer: Its Residual activity is 100%.

Question: With `O=S(=O)([O-])[O-].[Mg+2]` [MgSO4] as the compound, how does the Residual activity read?
Answer: The Residual activity was 100%.

Question: Which Residual activity does the source give for `O=C(O)CI` [Monoiodoacetic acid] here?
Answer: The Residual activity was 97%.

Question: For `c1cnc2c(c1)ccc1cccnc12` [O-Phenanthroline], which Residual activity is on record?
Answer: The Residual activity was 100%.

Question: With `[Cl-].[Cl-].[Zn+2]` [ZnCl2] as the compound, how does the Residual activity read?
Answer: The Residual activity was 100%.

Question: Which Residual activity does the source give for `O=C(O)c1cc[c]([Hg][Cl])cc1` [p-Chloromercuribenzoic acid] here?
Answer: Its Residual activity is 95%.

Question: What does the source list for HgCl2?
Answer: Inhibition of the enzyme (in words): inhibited; Residual activity: 5%
